Results: US10618918B2, “Substituted boronic acids as antimicrobials” (priority 2015, dated 2020)
pKi: −log10 of the molar value. Like-named read-outs stand apart in the source and are kept apart here.

Experiments:
KP1004 KPC-2 [1] = assay: Biapenem potentiation (MPC@1), strain KP1004 KPC-2; format: cell-based; conditions: minimum BLI concentration inhibiting growth with biapenem 1 μg/mL; tested up to 40 μg/mL
Description: (§1) Biapenem was present in the test medium at 1 μg/mL. […] Table 3 summarizes the BLI potency of biapenem potentiation (MPC@1) for two strains overexpressing class A (KPC) and class D (OXA-48) carbapenemases. Biapenem MIC for each strain is also shown.

AB1054 OXA-23 = assay: Meropenem potentiation (MPC@8), strain AB1054 OXA-23; format: cell-based, Acinetobacter baumannii; conditions: minimum BLI concentration inhibiting growth with meropenem 8 μg/mL; tested up to 20 μg/mL
ECL1002 = assay: Aztreonam potentiation (MPC@4), strain ECL1002; conditions: minimum BLI concentration inhibiting growth with aztreonam 4 μg/mL; tested up to 40 μg/mL
KP1086 OXA-48 = assay: Biapenem potentiation (MPC@1), strain KP1086 OXA-48; format: cell-based; conditions: minimum BLI concentration inhibiting growth with biapenem 1 μg/mL; tested up to 40 μg/mL
Description: as §1

ec302 TEM-10 = assay: Aztreonam potentiation (MPC@4), strain ec302 TEM-10; conditions: minimum BLI concentration inhibiting growth with aztreonam 4 μg/mL; tested up to 40 μg/mL
ec308 SHV-5 = assay: Aztreonam potentiation (MPC@4), strain ec308 SHV-5; conditions: minimum BLI concentration inhibiting growth with aztreonam 4 μg/mL; tested up to 40 μg/mL
AB1053 OXA-72 = assay: Meropenem potentiation (MPC@8), strain AB1053 OXA-72; format: cell-based, Acinetobacter baumannii; conditions: minimum BLI concentration inhibiting growth with meropenem 8 μg/mL; tested up to 20 μg/mL
KP1005 CTX-M-14 = assay: Tigemonam potentiation (MPC@4), strain KP1005 CTX-M-14; conditions: minimum BLI concentration inhibiting growth with tigemonam 4 μg/mL; tested up to 40 μg/mL
KP1010 SHV-12 = assay: Aztreonam potentiation (MPC@4), strain KP1010 SHV-12; conditions: minimum BLI concentration inhibiting growth with aztreonam 4 μg/mL; tested up to 40 μg/mL
KP1004 KPC-2 [2] = assay: Aztreonam potentiation (MPC@4), strain KP1004 KPC-2; conditions: minimum BLI concentration inhibiting growth with aztreonam 4 μg/mL; tested up to 40 μg/mL
[3] = target: purified class A, C and D enzymes (β-lactamases) (Klebsiella pneumoniae, UniProt Q9F663); assay: biochemical; format: biochemical; conditions: purified KPC-2; nitrocefin (NCF) as reporter substrate
[4] = target: T1, purified class A, C and D enzymes (β-lactamases) (Acinetobacter baumannii, UniProt Q9L4P2); assay: biochemical; format: biochemical; conditions: purified OXA-23; nitrocefin (NCF) as reporter substrate
T1 construct: rows headed: Ki (OXA-23, NCF), uM; other: purified OXA-23; nitrocefin (NCF) as reporter substrate

[5] = target: purified class A, C and D enzymes (β-lactamases) (Enterobacter cloacae, UniProt P05364); assay: biochemical; format: biochemical
[6] = target: purified class A, C and D enzymes (β-lactamases) (Klebsiella pneumoniae, UniProt Q6XEC0); assay: biochemical; format: biochemical; conditions: purified OXA-48; nitrocefin (NCF) as reporter substrate
[7] = target: T2, purified class A, C and D enzymes (β-lactamases) (Pseudomonas aeruginosa, UniProt P24735); assay: biochemical; format: biochemical
T2 construct: rows headed: Ki (Pa-AmpC, NCF), uM; other: purified Pa-AmpC; nitrocefin (NCF) as reporter substrate

[8] = target: purified class A, C and D enzymes (β-lactamases) (Escherichia coli, UniProt Q9L5C7); assay: biochemical; format: biochemical; conditions: purified CTX-M-14; nitrocefin (NCF) as reporter substrate
EC1010 CMY-6 = assay: Aztreonam potentiation (MPC@4), strain EC1010 CMY-6; conditions: minimum BLI concentration inhibiting growth with aztreonam 4 μg/mL; tested up to 40 μg/mL
KP1009 CTX-M-15 = assay: Aztreonam potentiation (MPC@4), strain KP1009 CTX-M-15; conditions: minimum BLI concentration inhibiting growth with aztreonam 4 μg/mL; tested up to 40 μg/mL
[9] = purified P99, nitrocefin (NCF) as reporter substrate
[10] = purified Pa-AmpC, nitrocefin (NCF) as reporter substrate, read-out: Ki (Pa-AmpC, NCF)

Sequence of purified class A, C and D enzymes (β-lactamases) (Enterobacter cloacae, UniProt P05364) (P05364 21-381): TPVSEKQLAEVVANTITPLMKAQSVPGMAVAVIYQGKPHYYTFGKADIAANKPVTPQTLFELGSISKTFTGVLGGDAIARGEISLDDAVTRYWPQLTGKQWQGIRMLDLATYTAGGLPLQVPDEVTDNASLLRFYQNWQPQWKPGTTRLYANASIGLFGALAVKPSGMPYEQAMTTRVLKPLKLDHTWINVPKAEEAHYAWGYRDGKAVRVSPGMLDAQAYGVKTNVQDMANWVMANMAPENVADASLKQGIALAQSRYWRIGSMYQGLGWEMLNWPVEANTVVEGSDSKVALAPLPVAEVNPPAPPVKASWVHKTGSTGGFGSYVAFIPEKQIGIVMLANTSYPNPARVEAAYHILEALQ
T2 sequence (P24735 whole entry): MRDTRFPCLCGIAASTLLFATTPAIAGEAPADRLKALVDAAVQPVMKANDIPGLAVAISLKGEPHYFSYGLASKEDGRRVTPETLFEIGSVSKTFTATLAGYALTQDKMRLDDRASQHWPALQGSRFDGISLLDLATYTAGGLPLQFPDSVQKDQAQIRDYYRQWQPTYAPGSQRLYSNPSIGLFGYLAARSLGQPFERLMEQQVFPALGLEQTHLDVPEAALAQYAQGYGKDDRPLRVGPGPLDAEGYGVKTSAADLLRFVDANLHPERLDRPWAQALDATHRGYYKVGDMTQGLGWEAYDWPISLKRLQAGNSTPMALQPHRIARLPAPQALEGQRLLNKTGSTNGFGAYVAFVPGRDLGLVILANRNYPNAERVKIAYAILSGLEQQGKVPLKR
T1 sequence (Q9L4P2 whole entry): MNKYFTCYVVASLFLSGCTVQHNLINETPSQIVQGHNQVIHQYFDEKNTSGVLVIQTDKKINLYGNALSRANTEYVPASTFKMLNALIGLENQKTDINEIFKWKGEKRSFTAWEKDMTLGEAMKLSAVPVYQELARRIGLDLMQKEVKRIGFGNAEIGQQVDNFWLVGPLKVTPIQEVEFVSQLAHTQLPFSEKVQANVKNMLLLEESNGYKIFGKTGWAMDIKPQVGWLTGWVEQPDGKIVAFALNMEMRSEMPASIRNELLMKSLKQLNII
Sequence of purified class A, C and D enzymes (β-lactamases) (Escherichia coli, UniProt Q9L5C7) (Q9L5C7 entry or part of it): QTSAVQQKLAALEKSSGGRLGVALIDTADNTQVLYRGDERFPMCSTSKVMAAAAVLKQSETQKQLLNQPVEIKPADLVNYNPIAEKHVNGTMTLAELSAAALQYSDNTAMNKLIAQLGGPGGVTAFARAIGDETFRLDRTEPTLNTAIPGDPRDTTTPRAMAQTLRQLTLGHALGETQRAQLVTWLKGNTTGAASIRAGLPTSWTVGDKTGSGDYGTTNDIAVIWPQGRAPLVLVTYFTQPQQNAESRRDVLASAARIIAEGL

SMILES | BPM MPC1 KP1004 KPC-2 (KP1004 KPC-2 [1]) | MPM MPC8 AB1054 OXA-23 (AB1054 OXA-23) | AZT MPC4 ECL1002 (ECL1002) | BPM MPC1 OXA-48 KP1086 (KP1086 OXA-48) | AZT MPC4 TEM-10 ec302 (ec302 TEM-10) | AZT MPC4 SHV-5 ec308 (ec308 SHV-5) | MPM MPC8 AB1053 OXA-72 (AB1053 OXA-72) | TIG MPC4 CTX-M-14 KP1005 (KP1005 CTX-M-14) | AZT MPC4 SHV-12 KP1010 (KP1010 SHV-12) | AZT MPC4 KPC-2 KP1004 (KP1004 KPC-2 [2]) | Ki (KPC-2, NCF), uM [3] | pKi [4] | Ki (P99, NCF), uM [5, 9] | Ki (OXA-48, NCF), uM [6] | pKi [7, 10] | Ki (CTX-M-14, NCF), uM [8] | AZT MPC4 CMY-6 EC1010 (EC1010 CMY-6) | AZT MPC4 CTX-M-15 KP1009 (KP1009 CTX-M-15) | Ki (P99, NCF), uM [5] | pKi [7]
COc1ccc2c(c1P(=O)(O)O)OB(O)CC2 [Compound 33, (2-Hydroxy-7-methoxy-3,4-dihydro-1,2-benzoxaborinin-8-yl)phosphonic acid] | X (X = MPC@1 ≤ 5 μg/mL) | Y (Y = 5 μg/mL < MPC@1 ≤ 20 μg/mL) | Z (Z = MPC@4 > 20 μg/mL) | X (X = MPC@1 ≤ 5 μg/mL) | Z (Z = MPC@4 > 20 μg/mL) | Z (Z = MPC@4 > 20 μg/mL) | Y (Y = 5 μg/mL < MPC@1 ≤ 20 μg/mL) | Z (Z = MPC@4 > 20 μg/mL) | Z (Z = MPC@4 > 20 μg/mL) | Z (Z = MPC@4 > 20 μg/mL) | Z (Z = Ki > 1 μM) | > 7.00 | Y (Y = 0.1 μM < Ki ≤ 1 μM) | X (X = Ki ≤ 0.1 μM) | < 6.00 | X (X = Ki ≤ 0.1 μM) | Y (Y = 5 μg/mL < MPC@4 ≤ 20 μg/mL) | Z (Z = MPC@4 > 20 μg/mL) |  | 
COc1c(F)cc2c(c1C(=O)O)OB(O)CC2 [Compound 34, 6-Fluoro-2-hydroxy-7-methoxy-3,4-dihydro-1,2-benzoxaborinine-8-carboxylic acid] | X (X = MPC@1 ≤ 5 μg/mL) | X (X = MPC@1 ≤ 5 μg/mL) | X (X = MPC@4 ≤ 5 μg/mL) | X (X = MPC@1 ≤ 5 μg/mL) | X (X = MPC@4 ≤ 5 μg/mL) | X (X = MPC@4 ≤ 5 μg/mL) | X (X = MPC@1 ≤ 5 μg/mL) | Z (Z = MPC@4 > 20 μg/mL) | X (X = MPC@4 ≤ 5 μg/mL) | X (X = MPC@4 ≤ 5 μg/mL) | X (X = Ki ≤ 0.1 μM) | > 7.00 | X (X = Ki ≤ 0.1 μM) | X (X = Ki ≤ 0.1 μM) | > 7.00 | X (X = Ki ≤ 0.1 μM) | X (X = MPC@4 ≤ 5 μg/mL) | X (X = MPC@4 ≤ 5 μg/mL) |  | 
O=C(O)c1c(F)c(F)cc2c1OB(O)CC2 [Compound 35, 6,7-Difluoro-2-hydroxy-3,4-dihydro-1,2-benzoxaborinine-8-carboxylic acid] | X (X = MPC@1 ≤ 5 μg/mL) | X (X = MPC@1 ≤ 5 μg/mL) | X (X = MPC@4 ≤ 5 μg/mL) | X (X = MPC@1 ≤ 5 μg/mL) | X (X = MPC@4 ≤ 5 μg/mL) | X (X = MPC@4 ≤ 5 μg/mL) | X (X = MPC@1 ≤ 5 μg/mL) | Y (Y = 5 μg/mL < MPC@4 ≤ 20 μg/mL) | X (X = MPC@4 ≤ 5 μg/mL) | X (X = MPC@4 ≤ 5 μg/mL) | X (X = Ki ≤ 0.1 μM) | > 7.00 | X (X = Ki ≤ 0.1 μM) | X (X = Ki ≤ 0.1 μM) | > 7.00 | X (X = Ki ≤ 0.1 μM) | X (X = MPC@4 ≤ 5 μg/mL) | X (X = MPC@4 ≤ 5 μg/mL) |  | 
CS(=O)(=O)c1ccc2c(c1C(=O)O)OB(O)CC2 [Compound 39, 2-Hydroxy-7-methylsulfonyl-3,4-dihydro-1,2-benzoxaborinine-8-carboxylic acid] | X (X = MPC@1 ≤ 5 μg/mL) | X (X = MPC@1 ≤ 5 μg/mL) | X (X = MPC@4 ≤ 5 μg/mL) | X (X = MPC@1 ≤ 5 μg/mL) | X (X = MPC@4 ≤ 5 μg/mL) | X (X = MPC@4 ≤ 5 μg/mL) | X (X = MPC@1 ≤ 5 μg/mL) | Y (Y = 5 μg/mL < MPC@4 ≤ 20 μg/mL) | X (X = MPC@4 ≤ 5 μg/mL) | X (X = MPC@4 ≤ 5 μg/mL) | X (X = Ki ≤ 0.1 μM) | > 7.00 | X (X = Ki ≤ 0.1 μM) | X (X = Ki ≤ 0.1 μM) | > 7.00 | X (X = Ki ≤ 0.1 μM) | X (X = MPC@4 ≤ 5 μg/mL) | X (X = MPC@4 ≤ 5 μg/mL) |  | 
COc1c(Cl)cc2c(c1C(=O)O)OB(O)CC2 [Compound 41, 6-Chloro-2-hydroxy-7-methoxy-3,4-dihydro-1,2-benzoxaborinine-8-carboxylic acid] | X (X = MPC@1 ≤ 5 μg/mL) | X (X = MPC@1 ≤ 5 μg/mL) | X (X = MPC@4 ≤ 5 μg/mL) | X (X = MPC@1 ≤ 5 μg/mL) | X (X = MPC@4 ≤ 5 μg/mL) | X (X = MPC@4 ≤ 5 μg/mL) | X (X = MPC@1 ≤ 5 μg/mL) | Y (Y = 5 μg/mL < MPC@4 ≤ 20 μg/mL) | X (X = MPC@4 ≤ 5 μg/mL) | X (X = MPC@4 ≤ 5 μg/mL) | X (X = Ki ≤ 0.1 μM) | > 7.00 | X (X = Ki ≤ 0.1 μM) | X (X = Ki ≤ 0.1 μM) | > 7.00 | X (X = Ki ≤ 0.1 μM) | X (X = MPC@4 ≤ 5 μg/mL) | X (X = MPC@4 ≤ 5 μg/mL) |  | 
O=C([O-])c1c(O)ccc2c1O[B-](O)(O)CC2.[Na+].[Na+] [Compound 42, Disodium; 4,4,8-trihydroxy-5-oxa-4-boranuidabicyclo[4.4.0]deca-1(6),7,9-triene-7-carboxylate] | X (X = MPC@1 ≤ 5 μg/mL) | Z (Z = MPC@1 > 20 μg/mL) | Z (Z = MPC@4 > 20 μg/mL) | X (X = MPC@1 ≤ 5 μg/mL) | Y (Y = 5 μg/mL < MPC@4 ≤ 20 μg/mL) | Y (Y = 5 μg/mL < MPC@4 ≤ 20 μg/mL) | Z (Z = MPC@1 > 20 μg/mL) | Z (Z = MPC@4 > 20 μg/mL) | X (X = MPC@4 ≤ 5 μg/mL) | Y (Y = 5 μg/mL < MPC@4 ≤ 20 μg/mL) | X (X = Ki ≤ 0.1 μM) | 6.00 to 7.00 |  | X (X = Ki ≤ 0.1 μM) |  | X (X = Ki ≤ 0.1 μM) | Z (Z = MPC@4 > 20 μg/mL) | Z (Z = MPC@4 > 20 μg/mL) | Y (key: X = Ki ≤ 0.1 μM; Y = 0.1 μM < Ki ≤ 1 μM; Z = Ki > 1 μM) | 6.00 to 7.00
O=C([O-])c1c(OCCF)ccc2c1O[B-](O)(O)CC2.[Na+].[Na+] [Compound 43, Disodium; 8-(2-fluoroethoxy)-4,4-dihydroxy-5-oxa-4-boranuidabicyclo[4.4.0]deca-1(6),7,9-triene-7-carboxylate] | X (X = MPC@1 ≤ 5 μg/mL) | X (X = MPC@1 ≤ 5 μg/mL) | X (X = MPC@4 ≤ 5 μg/mL) | X (X = MPC@1 ≤ 5 μg/mL) | X (X = MPC@4 ≤ 5 μg/mL) | X (X = MPC@4 ≤ 5 μg/mL) | X (X = MPC@1 ≤ 5 μg/mL) | X (X = MPC@4 ≤ 5 μg/mL) | X (X = MPC@4 ≤ 5 μg/mL) | X (X = MPC@4 ≤ 5 μg/mL) | X (X = Ki ≤ 0.1 μM) | > 7.00 |  | X (X = Ki ≤ 0.1 μM) |  | X (X = Ki ≤ 0.1 μM) | X (X = MPC@4 ≤ 5 μg/mL) | X (X = MPC@4 ≤ 5 μg/mL) | X (key: X = Ki ≤ 0.1 μM; Y = 0.1 μM < Ki ≤ 1 μM; Z = Ki > 1 μM) | > 7.00
